Earlier results, collected in PubChem BioAssay AID1259409 (Chemical Carcinogenesis Research Information System (CCRIS), 2018).
Values joined by “and” are separate entries in the source; they are usually repeats but may differ in a detail not shown here. Identical values can stand only once.

Tested on: rodent chemically induced tumor inhibition, incidence and multiplicity
Experiment: CCRIS tumor inhibitor studies

CCCCC[Se]C#N
tumour outcome (control, treated, inhibition, significance) (Carcinogen: 7,12-DIMETHYLBENZ[A]ANTHRACENE, 57-97-6, Dose [Inhibitor]: 0.1, 2 PPM (SELENIUM) IN DIET FOR 3 WK BEGINNING 2 WK PRIOR TO CARCINOGEN DOSE (STUDY DURATION: 25 WK), Route [Inhibitor]: ORAL, Species: RAT, Strain/Sex: SPRAGUE-DAWLEY/FEMALE, Target Tissue: Type of Lesion: MAMMARY GLAND: TUMOR, Dose [Carcinogen]: 10 MG ONCE, Promoter: NONE USED): 25/30 (83%), 11/30 (37%), 55%, p<0.05

COc1ccc(O)c(C(C)(C)C)c1
tumour outcome (control, treated, inhibition, significance) (Carcinogen: BENZO[A]PYENE, 50-32-8, Dose [Inhibitor]: 0.28 MMOL/G DIET DAILY FOR 6 WK STARTING 14 D PRIOR TO THE FIRST UNTIL 1 D AFTER LAST CARCINOGEN DOSE FOLLOWED BY AN OBS, Route [Inhibitor]: ORAL, Species: MOUSE, Strain/Sex: STRAIN-A/FEMALE, Target Tissue: Type of Lesion: LUNG: ADENOMA, Dose [Carcinogen]: 3 MG IN 0.2 ML COTTONSEED OIL GIVEN 3X AT 2 WK INTERVALS, Promoter: NONE USED): 100%, 100%, 0%, not significant
tumour outcome (control, treated, inhibition, significance) (Carcinogen: BENZO[A]PYRENE, 50-32-8, Dose [Inhibitor]: 0.03 MMOL/G OF DIET DAILY STARTING 7 D BEFORE AND CONTINUING THROUGH 3 D AFTER CARCINOGEN TREATMENT FOLLOWED BY OBSERVAT, Route [Inhibitor]: ORAL, Species: MOUSE, Strain/Sex: ICR/FEMALE, Target Tissue: Type of Lesion: FORESTOMACH: NEOPLASM, Dose [Carcinogen]: 1 MG IN 0.2 ML CORN OIL 2/WK FOR 4 WK, Promoter: NONE USED): 90%, 79%, 12%, not significant and 94%, 79%, 16%, not significant

NC(N)=NCCC[C@H](N)C(=O)O
tumour outcome (control, treated, inhibition, significance) (Carcinogen: 7,12-DIMETHYLBENZ[A]ANTHRACENE, 57-97-6, Dose [Inhibitor]: 0, 5% IN A 14% CASEIN DIET BEGINNING 2 WK PRIOR TO CARCINOGEN DOSE AND CONTINUING FOR 21 WK (STUDY DURATION: 23 WK), Route [Inhibitor]: ORAL, Species: RAT, Strain/Sex: SPRAGUE-DAWLEY/FEMALE, Target Tissue: Type of Lesion: MAMMARY GLAND: TUMOR, Dose [Carcinogen]: 7.5 MG IN 0.75 ML SESAME OIL ONCE AT 50 D OF AGE, Promoter: NONE USED): 24/30 (80%), 22/30 (73%), 8%, not significant
tumour outcome (control, treated, inhibition, significance) (Carcinogen: 7,12-DIMETHYLBENZ[A]ANTHRACENE, 57-97-6, Dose [Inhibitor]: 5% L-ARGININE IN DIET STARTING 7 D BEFORE DMBA ADMINISTRATION (STUDY DURATION: 21 WK), Route [Inhibitor]: ORAL, Species: RAT, Strain/Sex: SPRAGUE DAWLEY/FEMALE, Target Tissue: Type of Lesion: MAMMARY GLAND: TUMOR, Dose [Carcinogen]: 15% OIL EMULSION, 25 MG/KG BW ADMINISTERED ONCE, Promoter: NONE USED): 95%, 25%, 74%, not calculated
tumour outcome (control, treated, inhibition, significance) (Carcinogen: 7,12-DIMETHYLBENZ[A]ANTHRACENE, 57-97-6, Dose [Inhibitor]: 5% L-ARGININE IN DIET STARTING 7 D BEFORE DMBA TREATMENT FOR 3 M AND THEN CONTROL DIET (STUDY DURATION: 32 WK), Route [Inhibitor]: ORAL, Species: RAT, Strain/Sex: SPRAGUE DAWLEY/FEMALE, Target Tissue: Type of Lesion: MAMMARY GLAND: TUMOR, Dose [Carcinogen]: 15% OIL EMULSION, 25 MG/KG BW ADMINISTERED ONCE, Promoter: NONE USED): 100%, 80%, 20%, not calculated
tumour outcome (control, treated, inhibition, significance) (Carcinogen: HYDRAZINE SULFATE, 10034-93-2, Dose [Inhibitor]: 1.1 MG/D IN DIET STARTING 1 WK PRIOR TO ADMINISTRATION OF CARCINOGEN UNTIL END OF EXPERIMENT (STUDY DURATION: APPROXIMAT, Route [Inhibitor]: ORAL, Species: MOUSE, Strain/Sex: SWISS/MALE, FEMALE, Target Tissue: Type of Lesion: LIVER AND LUNG: COMBINED TUMORS, Dose [Carcinogen]: 1.1 MG/D 5 D/WK UNTIL 12 MO OF AGE, Promoter: NONE USED): 24/29 (83%), 11/18 (61%), 26%, not significant
tumour outcome (control, treated, inhibition, significance) (Carcinogen: ISONIAZID, 54-85-3, Dose [Inhibitor]: 1.1 MG/MOUSE/D SIMULTANEOUS WITH CARCINOGEN 6 D/WK (STUDY DURATION: 24 MO), Route [Inhibitor]: INTRAGASTRIC, Species: MOUSE, Strain/Sex: SWISS/MALE, Target Tissue: Type of Lesion: LUNG: TUMOR, Dose [Carcinogen]: 1.1 MG/MOUSE/D SIMULTANEOUS WITH INHIBITOR, Promoter: NONE USED): 15/29 (52%), 3/10 (30%), 42%, not significant
tumour outcome (control, treated, inhibition, significance) (Carcinogen: N-METHYL-N-NITROSOUREA, 684-93-5, Dose [Inhibitor]: 0, 5% IN A 14% CASEIN DIET BEGINNING 2 WK PRIOR TO CARCINOGEN DOSE AND CONTINUING FOR 21 WK (STUDY DURATION: 23 WK), Route [Inhibitor]: ORAL, Species: RAT, Strain/Sex: SPRAGUE-DAWLEY/FEMALE, Target Tissue: Type of Lesion: MAMMARY GLAND: TUMOR, Dose [Carcinogen]: 4 MG/100 G BW ONCE AT 50 D OF AGE, Promoter: NONE USED): 28/30 (93%), 27/30 (90%), 3%, not significant

COc1cc([C@H]2Oc3cc([C@H]4Oc5cc(O)cc(O)c5C(=O)[C@@H]4O)ccc3O[C@@H]2CO)ccc1O
outcome (Carcinogen: N-Butyl-N-(4-hydroxybutyl)nitrosamine, 3817-11-6, Dose [Inhibitor]: 200 mg/kg bw 1 wk before carcinogen, dose duration 51 wk, study duration 56 wk, Route [Inhibitor]: Oral (gavage) 5 d/wk, Species: Mouse, Strain/Sex: ICR/Male, Target Tissue: Type of Lesion: Urinary Bladder: carcinoma, Dose [Carcinogen]: 0, 0.5% in drinking water for 6 wk, Promoter: None): 52%, 4.1%, p=0.001

OCCOc1ccc(/C(=C(/CCCl)c2ccccc2)c2ccccc2)cc1
tumour outcome (control, treated, inhibition, significance) (Carcinogen: 7,12-DIMETHYLBENZ[A]ANTHRACENE (DMBA) (57-97-6), Dose [Inhibitor]: 50 MG/KG/D FOR 37 WK (STUDY DURATION: 37 WK), Route [Inhibitor]: ORAL GAVAGE, Species: MOUSE, Strain/Sex: SENCAR/FEMALE, Target Tissue: Type of Lesion: MAMMARY: CARCINOMA, Dose [Carcinogen]: 20 UG/D FOR 6 WKS (STUDY DURATION: 37 WKS), Promoter: MEDROXYPROGESTERONE ACETATE (71-58-9)): 10/21 (48%); 1/18 (6%), 88%, p=0.003
tumour outcome (control, treated, inhibition, significance) (Carcinogen: 7,12-DIMETHYLBENZ[A]ANTHRACENE (DMBA) [57-97-6], Dose [Inhibitor]: 50 MG/KG/D FOR 52 WK (STUDY DURATION: 52 WK), Route [Inhibitor]: ORAL GAVAGE, Species: MOUSE, Strain/Sex: SENCAR/FEMALE, Target Tissue: Type of Lesion: MAMMARY: CARCINOMA, Dose [Carcinogen]: 20 UG/D FOR 6 WKS, Promoter: MEDROXYPROGESTERONE ACETATE (71-58-9)): 13/23 (57%); 1/20 (5%), 91%, p=0.0003

C=C1CC[C@H](O)C/C1=C/C=C1\CCC[C@]2(C)[C@@H]([C@H](C)CCCC(C)C)CC[C@@H]12
tumour outcome (control, treated, inhibition, significance) (Carcinogen: N-BUTYL-N-(4-HYDROXYBUTYL)NITROSAMINE, 3817-11-6, Dose [Inhibitor]: 0.002% DIET DAILY FOR 7 WK FOLLOWED BY 1 WK OF NO TREATMENT THEN 5 WK OF 0.001% DIET DAILY AND NO FURTHER TREATMENT THRO, Route [Inhibitor]: ORAL, Species: RAT, Strain/Sex: F344/MALE, Target Tissue: Type of Lesion: URINARY BLADDER: PAPILLOMA, Dose [Carcinogen]: 0.01% IN DRINKING WATER FOR 4 WK, Promoter: NONE USED): 33%, 41%, -24%, not significant
tumour outcome (control, treated, inhibition, significance) (Carcinogen: N-METHYL-N-NITROSOUREA, 684-93-5, Dose [Inhibitor]: 0, 3.3 UG/KG OF DIET FOR 147 D (STUDY DURATION: 150 D), Route [Inhibitor]: ORAL, Species: RAT, Strain/Sex: SPRAGUE-DAWLEY/FEMALE, Target Tissue: Type of Lesion: MAMMARY GLAND: ADENOCARCINOMA, Dose [Carcinogen]: 50 MG/KG BW ONCE 3 D BEFORE INITIAL INHIBITOR DOSE, Promoter: NONE USED): 25/25 (100%), 25/25 (100%), 0%, not significant
tumour outcome (control, treated, inhibition, significance) (Carcinogen: N-METHYL-N-NITROSOUREA, 684-93-5, Dose [Inhibitor]: 0, 10 UG/KG OF DIET FOR 147 D (STUDY DURATION: 150 D), Route [Inhibitor]: ORAL, Species: RAT, Strain/Sex: SPRAGUE-DAWLEY/FEMALE, Target Tissue: Type of Lesion: MAMMARY GLAND: ADENOCARCINOMA, Dose [Carcinogen]: 50 MG/KG BW ONCE 3 D BEFORE INITIAL INHIBITOR DOSE, Promoter: NONE USED): 25/25 (100%), 25/25 (100%), 0%, not significant

CC(C)=CCCC(C)CCO (configuration not stated)
tumour outcome (control, treated, inhibition, significance) (Carcinogen: AZOXYMETHANE, 25843-45-2, Dose [Inhibitor]: 0, 5 MG/G IN DIET FOR 22 WK BEGINNING 3 D POST LAST CARCINOGEN DOSE (STUDY DURATION: 25 WK), Route [Inhibitor]: ORAL, Species: RAT, Strain/Sex: F344/MALE, Target Tissue: Type of Lesion: DUODENUM: ADENOCARCINOMA, Dose [Carcinogen]: 15 MG/KG BW 2/WK FOR 3 WK, Promoter: NONE USED): 50%, 26%, 48%, not significant
tumour outcome (control, treated, inhibition, significance) (Carcinogen: AZOXYMETHANE, 25843-45-2, Dose [Inhibitor]: 0, 5 MG/G IN DIET FOR 22 WK BEGINNING 3 D POST LAST CARCINOGEN DOSE (STUDY DURATION: 25 WK), Route [Inhibitor]: ORAL, Species: RAT, Strain/Sex: F344/MALE, Target Tissue: Type of Lesion: LARGE BOWEL: ADENOMATOUS POLYP, Dose [Carcinogen]: 15 MG/KG BW 2/WK FOR 3 WK, Promoter: NONE USED): 82%, 69%, 16%, not significant
